Measurements reported in ChEMBL document CHEMBL4417631, “Oral peptide inhibitors of interleukin-23 receptor and their use to treat inflammatory bowel diseases” (2017).
Where a SMILES comes first, the peptide text is derived from it. [ ]: non-standard residue; d: D form. hLeu = CC(C)CC[C@H](N)C(=O)O

Assays:
[1] = target: T1, Interleukin-23 receptor (Homo sapiens, UniProt Q5VWK5); test: Inhibition of interleukin-23 receptor in human DB cells assessed as reduction in IL-23-stimulated STAT3 phosphorylation incubated for 30 mins by HTRF assay; format: cell-based
T1 sequence (Q5VWK5 whole entry): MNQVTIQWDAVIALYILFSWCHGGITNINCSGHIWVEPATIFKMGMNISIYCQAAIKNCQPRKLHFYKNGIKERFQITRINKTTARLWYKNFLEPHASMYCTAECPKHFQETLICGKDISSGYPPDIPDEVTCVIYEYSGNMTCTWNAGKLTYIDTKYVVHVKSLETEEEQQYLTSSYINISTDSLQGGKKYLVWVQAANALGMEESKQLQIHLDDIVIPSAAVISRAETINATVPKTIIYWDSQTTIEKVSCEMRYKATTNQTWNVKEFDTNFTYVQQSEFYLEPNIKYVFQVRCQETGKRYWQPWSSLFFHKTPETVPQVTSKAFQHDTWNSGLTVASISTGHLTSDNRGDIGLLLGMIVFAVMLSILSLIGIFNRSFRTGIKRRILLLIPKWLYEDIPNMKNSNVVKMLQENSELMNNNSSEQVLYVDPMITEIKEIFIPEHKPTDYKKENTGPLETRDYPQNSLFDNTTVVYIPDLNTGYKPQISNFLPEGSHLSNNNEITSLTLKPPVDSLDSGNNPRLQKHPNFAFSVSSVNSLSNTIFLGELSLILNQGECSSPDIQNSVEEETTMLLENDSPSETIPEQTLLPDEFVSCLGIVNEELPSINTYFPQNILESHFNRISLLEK

[2] = Inhibition of interleukin-23 binding to rat interleukin-23 receptor incubated for 2 hrs by competitive binding ELISA
[3] = target: T1, Interleukin-23 receptor; test: Inhibition of interleukin-23 binding to human interleukin-23 receptor incubated for 2 hrs by competitive binding ELISA

IC50 [1]	IC50 [2]	IC50 [3]	Structure (SMILES)
0.002 µM	0.024 µM	–	CC(=O)N[C@@H](CS)C(=O)N[C@@H](CO)C(=O)N[C@H](C(=O)N[C@@H](Cc1c[nH]c2ccccc12)C(=O)N[C@@H](CCC(N)=O)C(=O)N[C@@H](CS)C(=O)N[C@@H](Cc1ccc(O)cc1)C(=O)N[C@@H](Cc1c[nH]c2ccccc12)C(=O)N[C@@H](CC(C)C)C(=O)N[C@@H](CCCCN)C(=O)N[C@@H](Cc1cnc[nH]1)C(=O)NCC(=O)NCC(=O)N[C@@H](CCC(=O)O)C(N)=O)[C@@H](C)O (Ac-CSTWQCYWLKHGGE-NH2)
–	0.14 µM	0.061 to 0.362 µM	CC(=O)N[C@@H](CS)C(=O)N[C@@H](CCC(N)=O)C(=O)N[C@H](C(=O)N[C@@H](Cc1c[nH]c2ccccc12)C(=O)N[C@@H](CCC(N)=O)C(=O)N[C@@H](CS)C(=O)N[C@@H](Cc1ccc(O)cc1)C(=O)N[C@@H](Cc1c[nH]c2ccccc12)C(=O)N[C@@H](CCC(C)C)C(=O)N[C@@H](CCC(=O)O)C(=O)N[C@@H](CC(N)=O)C(=O)NCC(=O)NCC(N)=O)[C@@H](C)O
–	0.069 µM	–	CC(=O)N[C@@H](CS)C(=O)N[C@@H](CCCN)C(=O)N[C@H](C(=O)N[C@@H](Cc1c[nH]c2ccccc12)C(=O)N[C@@H](CCC(N)=O)C(=O)N[C@@H](CS)C(=O)N[C@@H](Cc1ccc(O)cc1)C(=O)N[C@@H](Cc1c[nH]c2ccccc12)C(=O)N[C@@H](CCCNC(=N)N)C(=O)N[C@H](C(=O)N[C@@H](Cc1ccccc1)C(=O)NCC(=O)NCCOCC(=O)N[C@H](CCCCN)C(N)=O)C(C)C)[C@@H](C)O
–	0.085 µM	–	CC(=O)N[C@@H](CS)C(=O)N(C)[C@@H](CCC(N)=O)C(=O)N[C@H](C(=O)N[C@@H](Cc1c[nH]c2ccccc12)C(=O)N[C@@H](CCC(N)=O)C(=O)N[C@@H](CS)C(=O)N[C@@H](Cc1ccc(O)cc1)C(=O)N[C@@H](Cc1c[nH]c2ccccc12)C(=O)N[C@@H](CCCNC(=N)N)C(=O)N[C@H](C(=O)N[C@@H](Cc1ccccc1)C(=O)NCC(=O)NCCC(=O)N[C@H](CCCCN)C(N)=O)C(C)C)[C@@H](C)O
–	0.053 µM	–	CC(=O)N[C@@H](CS)C(=O)N[C@@H](CCC(N)=O)C(=O)N[C@H](C(=O)N[C@@H](Cc1c[nH]c2ccccc12)C(=O)N[C@@H](CCC(N)=O)C(=O)N[C@@H](CS)C(=O)N[C@@H](Cc1ccc(O)cc1)C(=O)N[C@@H](Cc1c[nH]c2ccccc12)C(=O)N[C@@H](CCC(C)C)C(=O)N[C@@H](CCC(=O)O)C(=O)N[C@@H](CCC(=O)O)C(=O)NCC(N)=O)[C@@H](C)O (Ac-CQTWQCYW[hLeu]EEG-NH2)
0.008 µM	0.08 µM	–	CC(=O)N[C@@H](CS)C(=O)N[C@@H](CCCNC(=N)N)C(=O)N[C@H](C(=O)N[C@@H](Cc1c[nH]c2ccccc12)C(=O)N[C@@H](CCC(N)=O)C(=O)N[C@@H](CS)C(=O)N[C@@H](Cc1ccc(O)cc1)C(=O)N[C@@H](Cc1c[nH]c2ccccc12)C(=O)N[C@@H](CCCNC(=N)N)C(=O)N[C@@H](CCC(=O)O)C(=O)N[C@@H](Cc1ccc(O)cc1)C(=O)NCC(=O)N[C@@H](C)C(=O)N[C@H](CCCCN)C(N)=O)[C@@H](C)O
–	0.182 µM	–	CC(=O)N[C@@H](CS)C(=O)N[C@@H](CCC(N)=O)C(=O)N[C@H](C(=O)N[C@@H](Cc1c[nH]c2ccccc12)C(=O)N[C@@H](CCC(N)=O)C(=O)N[C@@H](CS)C(=O)N[C@@H](Cc1ccc(O)cc1)C(=O)N[C@@H](Cc1c[nH]c2ccccc12)C(=O)N[C@@H](CCC(C)C)C(=O)N[C@@H](CCC(=O)O)C(=O)N[C@@H](CC(N)=O)C(=O)N[C@@H](Cc1ccccc1)C(N)=O)[C@@H](C)O
–	0.028 µM	–	CC(=O)N[C@@H](CS)C(=O)N[C@H](C(=O)N[C@H](C(=O)N[C@@H](Cc1c[nH]c2ccccc12)C(=O)N[C@@H](CCC(N)=O)C(=O)N[C@@H](CS)C(=O)N[C@@H](Cc1ccc(O)cc1)C(=O)N[C@@H](Cc1c[nH]c2ccccc12)C(=O)N[C@@H](CCC(C)C)C(=O)N[C@@H](CCC(=O)O)C(=O)N[C@@H](CC(N)=O)C(=O)NCC(N)=O)[C@@H](C)O)[C@@H](C)O (Ac-CTTWQCYW[hLeu]ENG-NH2)
–	0.483 µM	–	CC(=O)N[C@@H](CS)C(=O)N[C@@H](CCCNC(=N)N)C(=O)N[C@H](C(=O)N[C@@H](Cc1c[nH]c2ccccc12)C(=O)N[C@@H](CCC(N)=O)C(=O)N[C@@H](CS)C(=O)N[C@@H](Cc1ccc(O)cc1)C(=O)N[C@@H](Cc1c[nH]c2ccccc12)C(=O)N[C@@H](CC(C)C)C(=O)N[C@@H](CCCNC(=N)N)C(=O)N[C@@H](CC(C)C)C(=O)NCC(=O)N[C@@H](CC(=O)O)C(=O)N[C@@H](CCC(=O)O)C(=O)NCC(N)=O)[C@@H](C)O (Ac-CRTWQCYWLRLGDEG-NH2)

Further lines, the compound ahead of its results:

Structure (SMILES)	IC50 [1]	IC50 [2]	IC50 [3]
CC(=O)N[C@@H](CS)C(=O)N[C@@H](CCC(N)=O)C(=O)N[C@H](C(=O)N[C@@H](Cc1c[nH]c2ccccc12)C(=O)N[C@@H](CCC(N)=O)C(=O)N[C@@H](CS)C(=O)N[C@@H](Cc1ccc(O)cc1)C(=O)N[C@@H](Cc1ccc(-c2ccccc2)cc1)C(=O)N[C@@H](CCC(C)C)C(=O)N[C@@H](CCC(=O)O)C(=O)N[C@@H](CC(N)=O)C(=O)NCC(N)=O)[C@@H](C)O	–	0.051 µM	–
CC(=O)N[C@@H](CS)C(=O)N[C@@H](CCC(N)=O)C(=O)N[C@H](C(=O)N[C@@H](Cc1c[nH]c2ccccc12)C(=O)N[C@@H](CCC(N)=O)C(=O)N[C@@H](CS)C(=O)N[C@@H](Cc1ccc(O)cc1)C(=O)N[C@@H](Cc1cccc2ccccc12)C(=O)N[C@@H](CCC(C)C)C(=O)N[C@@H](CCC(=O)O)C(=O)N[C@@H](CC(N)=O)C(=O)NCC(N)=O)[C@@H](C)O	–	0.037 µM	–
CC(=O)N[C@@H](CS)C(=O)N[C@@H](CO)C(=O)N[C@H](C(=O)N[C@@H](Cc1c[nH]c2ccccc12)C(=O)N[C@@H](CCC(=O)O)C(=O)N[C@@H](CS)C(=O)N[C@@H](Cc1ccc(O)cc1)C(=O)N[C@@H](Cc1c[nH]c2ccccc12)C(=O)N[C@@H](Cc1cnc[nH]1)C(=O)N[C@H](C(=O)N[C@@H](Cc1ccc(O)cc1)C(=O)NCC(N)=O)[C@@H](C)O)[C@@H](C)O	–	0.286 µM	–
CC(=O)N[C@@H](CS)C(=O)N(C)[C@@H](CCCNC(=N)N)C(=O)N[C@H](C(=O)N[C@@H](Cc1c[nH]c2ccccc12)C(=O)N[C@@H](CCC(N)=O)C(=O)N[C@@H](CS)C(=O)N[C@@H](Cc1ccc(O)cc1)C(=O)N[C@@H](Cc1c[nH]c2ccccc12)C(=O)N[C@@H](CCCNC(=N)N)C(=O)N[C@H](C(=O)N[C@@H](Cc1ccccc1)C(=O)NCC(=O)NCCC(=O)N[C@H](CCCCN)C(N)=O)C(C)C)[C@@H](C)O	–	0.192 µM	–
CC(=O)N[C@@H](CS)C(=O)N[C@@H](C)C(=O)N[C@@H](CC(=O)O)C(=O)N[C@@H](Cc1c[nH]c2ccccc12)C(=O)N[C@H](C(=O)N[C@@H](CS)C(=O)N[C@@H](Cc1ccc(O)cc1)C(=O)N[C@@H](Cc1c[nH]c2ccccc12)C(=O)N[C@@H](CCCNC(=N)N)C(=O)N[C@@H](CCCCN)C(=O)N[C@@H](Cc1ccccc1)C(=O)NCC(=O)NCCC(=O)N[C@H](CCCCN)C(N)=O)C(C)C	–	0.033 µM	–
CC(=O)N[C@@H](CS)C(=O)N[C@@H](CCC(N)=O)C(=O)N[C@H](C(=O)N[C@@H](Cc1c[nH]c2ccccc12)C(=O)N[C@@H](CCC(N)=O)C(=O)N[C@@H](CS)C(=O)N[C@@H](Cc1ccc(O)cc1)C(=O)N[C@@H](Cc1c[nH]c2ccccc12)C(=O)N[C@@](C)(CC(C)C)C(=O)N[C@@H](CCC(=O)O)C(=O)N[C@@H](CC(N)=O)C(=O)NCC(N)=O)[C@@H](C)O	0.005 µM	0.027 µM	–
CC(=O)N[C@@H](Cc1ccccc1)C(=O)N[C@@H](CS)C(=O)N[C@@H](CCC(N)=O)C(=O)N[C@H](C(=O)N[C@@H](Cc1c[nH]c2ccccc12)C(=O)N[C@@H](CCC(N)=O)C(=O)N[C@@H](CS)C(=O)N[C@@H](Cc1ccc(O)cc1)C(=O)N[C@@H](Cc1c[nH]c2ccccc12)C(=O)N[C@@H](CCC(C)C)C(=O)N[C@@H](CCC(=O)O)C(=O)N[C@@H](CC(N)=O)C(=O)NCC(N)=O)[C@@H](C)O	–	0.025 µM	–
CC(=O)N[C@@H](CS)C(=O)N[C@@H](CCC(N)=O)C(=O)N[C@H](C(=O)N[C@@H](Cc1c[nH]c2ccccc12)C(=O)N[C@@H](CCC(N)=O)C(=O)N[C@@H](CS)C(=O)N[C@@H](Cc1ccc(O)cc1)C(=O)N[C@@H](Cc1c[nH]c2ccccc12)C(=O)N[C@@H](CCCNC(=N)N)C(=O)N[C@H](C(=O)N[C@@H](Cc1ccccc1)C(=O)NCC(=O)NCCOCC(=O)N[C@H](CCCCN)C(N)=O)C(C)C)[C@@H](C)O	–	0.062 µM	–
CC(=O)N[C@@H](CS)C(=O)N[C@@H](CCCNC(N)=O)C(=O)N[C@H](C(=O)N[C@@H](Cc1c[nH]c2ccccc12)C(=O)N[C@@H](CCC(N)=O)C(=O)N[C@@H](CS)C(=O)N[C@@H](Cc1ccc(O)cc1)C(=O)N[C@@H](Cc1c[nH]c2ccccc12)C(=O)N[C@@H](CCCNC(=N)N)C(=O)N[C@H](C(=O)N[C@@H](Cc1ccccc1)C(=O)NCC(=O)NCCC(=O)N[C@H](CCCCN)C(N)=O)C(C)C)[C@@H](C)O	–	0.076 µM	0.05 µM
CC(=O)N[C@@H](CS)C(=O)N[C@@H](CCC(N)=O)C(=O)N[C@H](C(=O)N[C@@H](Cc1c[nH]c2ccccc12)C(=O)N[C@@H](CCC(N)=O)C(=O)N[C@@H](CS)C(=O)N[C@@H](Cc1ccc(O)cc1)C(=O)N[C@@H](Cc1c[nH]c2ccccc12)C(=O)NC(C)(C)C(=O)N[C@@H](CCC(=O)O)C(=O)N[C@@H](CC(N)=O)C(=O)NCC(N)=O)[C@@H](C)O	–	0.034 µM	–
